Assay results as given in the supplement of paper PMC11451515.

How the values were obtained:
Conditions in all cases: 48 h
NOMO1 [1] = experiment: AUC of viability dose-response curve (% viability x log10 dose units); higher = less sensitive
Procedure, shortened: (§1)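 Library compounds in DMSO were applied for 48 h at 37°C at 11 threefold doses (47 μM to 0.79 nM) to medium-adapted leukemia cells in 1536-well plates holding 500 or 1000 cells/well. Luminescence from CellTiter-Glo One was normalised plate by plate against DMSO and cell-free wells. Area under the curve came from trapezoidal integration of a log-logistic fit, after scaling curves that rose above full viability and discarding those that failed quality control. The fit had four parameters and used log10 doses.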

P12-Ichikawa [2] = experiment: as above
Procedure, shortened: as §1

SEM cells [3] = experiment: as above
Procedure, shortened: as §1

NOMO1 [4] = experiment: cell viability relative to DMSO control; higher = less cytotoxic
Procedure, shortened: (§2)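 NOMO1, SEM and P12-Ichikawa leukemia cells spent at least four passages adapting to each medium before use. They were seeded at 500 cells/well (NOMO1, SEM) or 1000 cells/well (P12-Ichikawa) in 5 μl in 1536-well plates and pin-dosed with library compounds in DMSO at 11 threefold steps from 47 μM down to 0.79 nM. After 48 h at 37°C, CellTiter-Glo One luminescence was read. Viability is reported as a percentage of the DMSO wells on each plate, with cell-free wells as background.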

P12-Ichikawa [5] = experiment: as above
Procedure, shortened: as §2

SEM cells [6] = experiment: as above
Procedure, shortened: as §2

COc1ccc(C2(C#N)CCC(C(=O)O)CC2)cc1OC1CCCC1 (centres undefined)
AUC of viability dose-response curve
Conditions | NOMO1 [1] | P12-Ichikawa [2] | SEM cells [3]
HPLM + 10% dialyzed FBS | 465 | 475 | 439
RPMI 5 mM glucose + 10% FBS | 434 | 466 | 443
RPMI 5 mM glucose + 10% dialyzed FBS | 471 | 464 | 443

cell viability [%]
Conditions | NOMO1 [4] | P12-Ichikawa [5] | SEM cells [6]
HPLM + 10% dialyzed FBS, 0.000781 µM | 91 | 96.2 | 85.5
HPLM + 10% dialyzed FBS, 0.00234 µM | 109 | 105 | 97.5
HPLM + 10% dialyzed FBS, 0.00702 µM | 95 | 108 | 95.9
HPLM + 10% dialyzed FBS, 0.0211 µM | 116 | 108 | 101
HPLM + 10% dialyzed FBS, 0.0632 µM | 120 | 104 | 99.6
HPLM + 10% dialyzed FBS, 0.19 µM | 123 | 107 | 102
HPLM + 10% dialyzed FBS, 0.569 µM | 113 | 103 | 103
HPLM + 10% dialyzed FBS, 1.71 µM | 113 | 99.2 | 94.7
HPLM + 10% dialyzed FBS, 5.12 µM | 111 | 105 | 105
HPLM + 10% dialyzed FBS, 15.4 µM | 102 | 108 | 106
HPLM + 10% dialyzed FBS, 46.1 µM | 108 | 109 | 114
RPMI 5 mM glucose + 10% FBS, 0.000781 µM | 82.4 | 94.8 | 77.3
RPMI 5 mM glucose + 10% FBS, 0.00234 µM | 91.8 | 97.6 | 85.3
RPMI 5 mM glucose + 10% FBS, 0.00702 µM | 84.9 | 96.6 | 94.1
RPMI 5 mM glucose + 10% FBS, 0.0211 µM | 87.5 | 95.2 | 90.4
RPMI 5 mM glucose + 10% FBS, 0.0632 µM | 94.1 | 96.8 | 87.4
RPMI 5 mM glucose + 10% FBS, 0.19 µM | 96.8 | 101 | 95.5
RPMI 5 mM glucose + 10% FBS, 0.569 µM | 96.3 | 106 | 104
RPMI 5 mM glucose + 10% FBS, 1.71 µM | 85.7 | 103 | 95.8
RPMI 5 mM glucose + 10% FBS, 5.12 µM | 101 | 97.9 | 88.3
RPMI 5 mM glucose + 10% FBS, 15.4 µM | 89.6 | 103 | 99.4
RPMI 5 mM glucose + 10% FBS, 46.1 µM | 90.6 | 96.2 | 99.6
RPMI 5 mM glucose + 10% dialyzed FBS, 0.000781 µM | 99.5 | 91.5 | 81.8
RPMI 5 mM glucose + 10% dialyzed FBS, 0.00234 µM | 105 | 95.6 | 86.8
RPMI 5 mM glucose + 10% dialyzed FBS, 0.00702 µM | 98.3 | 92.8 | 104
RPMI 5 mM glucose + 10% dialyzed FBS, 0.0211 µM | 102 | 93.4 | 94.4
RPMI 5 mM glucose + 10% dialyzed FBS, 0.0632 µM | 98.2 | 101 | 84.3
RPMI 5 mM glucose + 10% dialyzed FBS, 0.19 µM | 95 | 102 | 95.5
RPMI 5 mM glucose + 10% dialyzed FBS, 0.569 µM | 107 | 100 | 92.2
RPMI 5 mM glucose + 10% dialyzed FBS, 1.71 µM | 101 | 108 | 100
RPMI 5 mM glucose + 10% dialyzed FBS, 5.12 µM | 101 | 94.3 | 90.4
RPMI 5 mM glucose + 10% dialyzed FBS, 15.4 µM | 100 | 100 | 96.9
RPMI 5 mM glucose + 10% dialyzed FBS, 46.1 µM | 105 | 87.9 | 96.3

COc1cc2ncn(-c3cc(OCc4ccccc4C(F)(F)F)c(C(N)=O)s3)c2cc1OC
AUC of viability dose-response curve
Conditions | NOMO1 [1] | P12-Ichikawa [2] | SEM cells [3]
HPLM + 10% dialyzed FBS | 349 | 333 | 358
RPMI 5 mM glucose + 10% FBS | 375 | 352 | 354
RPMI 5 mM glucose + 10% dialyzed FBS | 375 | 364 | 372

cell viability [%]
Conditions | NOMO1 [4] | P12-Ichikawa [5] | SEM cells [6]
HPLM + 10% dialyzed FBS, 0.000781 µM | 124 | 114 | 120
HPLM + 10% dialyzed FBS, 0.00234 µM | 117 | 122 | 121
HPLM + 10% dialyzed FBS, 0.00702 µM | 126 | 108 | 116
HPLM + 10% dialyzed FBS, 0.0211 µM | 117 | 112 | 115
HPLM + 10% dialyzed FBS, 0.0632 µM | 120 | 121 | 115
HPLM + 10% dialyzed FBS, 0.19 µM | 115 | 110 | 104
HPLM + 10% dialyzed FBS, 0.569 µM | 89.2 | 95.2 | 110
HPLM + 10% dialyzed FBS, 1.71 µM | 46.1 | 45.2 | 65.3
HPLM + 10% dialyzed FBS, 5.12 µM | 42.2 | 13.8 | 28.6
HPLM + 10% dialyzed FBS, 15.4 µM | 41.2 | 11.9 | 22.4
HPLM + 10% dialyzed FBS, 46.1 µM | 24.9 | 11.8 | 20.7
RPMI 5 mM glucose + 10% FBS, 0.000781 µM | 99.2 | 117 | 124
RPMI 5 mM glucose + 10% FBS, 0.00234 µM | 111 | 112 | 121
RPMI 5 mM glucose + 10% FBS, 0.00702 µM | 116 | 121 | 122
RPMI 5 mM glucose + 10% FBS, 0.0211 µM | 111 | 112 | 115
RPMI 5 mM glucose + 10% FBS, 0.0632 µM | 120 | 110 | 124
RPMI 5 mM glucose + 10% FBS, 0.19 µM | 118 | 111 | 105
RPMI 5 mM glucose + 10% FBS, 0.569 µM | 110 | 115 | 128
RPMI 5 mM glucose + 10% FBS, 1.71 µM | 94.9 | 71.5 | 74
RPMI 5 mM glucose + 10% FBS, 5.12 µM | 26.3 | 12.2 | 18.4
RPMI 5 mM glucose + 10% FBS, 15.4 µM | 24.6 | 11.8 | 13.4
RPMI 5 mM glucose + 10% FBS, 46.1 µM | 17.6 | 11.1 | 13.1
RPMI 5 mM glucose + 10% dialyzed FBS, 0.000781 µM | 108 | 113 | 108
RPMI 5 mM glucose + 10% dialyzed FBS, 0.00234 µM | 122 | 111 | 112
RPMI 5 mM glucose + 10% dialyzed FBS, 0.00702 µM | 112 | 111 | 124
RPMI 5 mM glucose + 10% dialyzed FBS, 0.0211 µM | 113 | 112 | 120
RPMI 5 mM glucose + 10% dialyzed FBS, 0.0632 µM | 112 | 123 | 116
RPMI 5 mM glucose + 10% dialyzed FBS, 0.19 µM | 123 | 109 | 142
RPMI 5 mM glucose + 10% dialyzed FBS, 0.569 µM | 117 | 103 | 139
RPMI 5 mM glucose + 10% dialyzed FBS, 1.71 µM | 85.2 | 85.3 | 103
RPMI 5 mM glucose + 10% dialyzed FBS, 5.12 µM | 32.4 | 19.5 | 25.9
RPMI 5 mM glucose + 10% dialyzed FBS, 15.4 µM | 30.1 | 17.4 | 20.3
RPMI 5 mM glucose + 10% dialyzed FBS, 46.1 µM | 24.9 | 12.8 | 19.5

CC(C)[N+]1(C)C2CCC1CC(OC(=O)C(CO)c1ccccc1)C2.O.[Br-] (centres undefined)
AUC of viability dose-response curve
Conditions | NOMO1 [1] | P12-Ichikawa [2] | SEM cells [3]
HPLM + 10% dialyzed FBS | 423 | 383 | 449
RPMI 5 mM glucose + 10% FBS | 457 | 427 | 423
RPMI 5 mM glucose + 10% dialyzed FBS | 450 | 417 | 422

cell viability [%]
Conditions | NOMO1 [4] | P12-Ichikawa [5] | SEM cells [6]
HPLM + 10% dialyzed FBS, 0.000781 µM | 129 | 98.5 | 96
HPLM + 10% dialyzed FBS, 0.00234 µM | 118 | 111 | 97.8
HPLM + 10% dialyzed FBS, 0.00702 µM | 120 | 116 | 107
HPLM + 10% dialyzed FBS, 0.0211 µM | 117 | 112 | 91.3
HPLM + 10% dialyzed FBS, 0.0632 µM | 123 | 123 | 98.7
HPLM + 10% dialyzed FBS, 0.19 µM | 119 | 124 | 108
HPLM + 10% dialyzed FBS, 0.569 µM | 148 | 123 | 93.7
HPLM + 10% dialyzed FBS, 1.71 µM | 134 | 109 | 113
HPLM + 10% dialyzed FBS, 5.12 µM | 101 | 50 | 91.4
HPLM + 10% dialyzed FBS, 15.4 µM | 58.8 | 14.1 | 69.4
HPLM + 10% dialyzed FBS, 46.1 µM | 21.9 | 7.93 | 64.5
RPMI 5 mM glucose + 10% FBS, 0.000781 µM | 103 | 125 | 111
RPMI 5 mM glucose + 10% FBS, 0.00234 µM | 105 | 123 | 103
RPMI 5 mM glucose + 10% FBS, 0.00702 µM | 95.1 | 129 | 106
RPMI 5 mM glucose + 10% FBS, 0.0211 µM | 118 | 126 | 96.6
RPMI 5 mM glucose + 10% FBS, 0.0632 µM | 108 | 128 | 125
RPMI 5 mM glucose + 10% FBS, 0.19 µM | 123 | 125 | 119
RPMI 5 mM glucose + 10% FBS, 0.569 µM | 101 | 137 | 105
RPMI 5 mM glucose + 10% FBS, 1.71 µM | 116 | 132 | 108
RPMI 5 mM glucose + 10% FBS, 5.12 µM | 109 | 127 | 85.9
RPMI 5 mM glucose + 10% FBS, 15.4 µM | 92.3 | 52.5 | 40.7
RPMI 5 mM glucose + 10% FBS, 46.1 µM | 48.6 | 13.8 | 42.3
RPMI 5 mM glucose + 10% dialyzed FBS, 0.000781 µM | 115 | 113 | 93.2
RPMI 5 mM glucose + 10% dialyzed FBS, 0.00234 µM | 115 | 113 | 98.2
RPMI 5 mM glucose + 10% dialyzed FBS, 0.00702 µM | 119 | 119 | 109
RPMI 5 mM glucose + 10% dialyzed FBS, 0.0211 µM | 110 | 117 | 109
RPMI 5 mM glucose + 10% dialyzed FBS, 0.0632 µM | 132 | 124 | 120
RPMI 5 mM glucose + 10% dialyzed FBS, 0.19 µM | 114 | 112 | 116
RPMI 5 mM glucose + 10% dialyzed FBS, 0.569 µM | 127 | 118 | 123
RPMI 5 mM glucose + 10% dialyzed FBS, 1.71 µM | 121 | 115 | 130
RPMI 5 mM glucose + 10% dialyzed FBS, 5.12 µM | 105 | 102 | 90.2
RPMI 5 mM glucose + 10% dialyzed FBS, 15.4 µM | 93.2 | 34 | 40.3
RPMI 5 mM glucose + 10% dialyzed FBS, 46.1 µM | 60.7 | 19.3 | 41.9
